Calls of active or inactive are those of the source.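 Rule for the calls: active = response rises or falls steadily with concentration, forming a dose-response curve as judged by the submitting lab; inactive = the rest.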

10 compounds from PubChem BioAssay AID623941 (Vanderbilt Specialized Chemistry Center, 2012) can be followed below.

The target in this assay is Muscarinic acetylcholine receptor M2 (Rattus norvegicus) (UniProt P10980). Description: off-target potentiation of rat M2 ACh response – CHO cells, Gqi5 chimera, calcium, ACh EC20, selectivity assay for M4 PAM optimization project, SAR follow-up (AID 623941). Particulars: CHO rM2/Gqi5 calcium fluorescence; for % ACh max response: at 30 µM (top of the series).
Sequence of Muscarinic acetylcholine receptor M2 (Rattus norvegicus) (P10980 whole entry, looked up): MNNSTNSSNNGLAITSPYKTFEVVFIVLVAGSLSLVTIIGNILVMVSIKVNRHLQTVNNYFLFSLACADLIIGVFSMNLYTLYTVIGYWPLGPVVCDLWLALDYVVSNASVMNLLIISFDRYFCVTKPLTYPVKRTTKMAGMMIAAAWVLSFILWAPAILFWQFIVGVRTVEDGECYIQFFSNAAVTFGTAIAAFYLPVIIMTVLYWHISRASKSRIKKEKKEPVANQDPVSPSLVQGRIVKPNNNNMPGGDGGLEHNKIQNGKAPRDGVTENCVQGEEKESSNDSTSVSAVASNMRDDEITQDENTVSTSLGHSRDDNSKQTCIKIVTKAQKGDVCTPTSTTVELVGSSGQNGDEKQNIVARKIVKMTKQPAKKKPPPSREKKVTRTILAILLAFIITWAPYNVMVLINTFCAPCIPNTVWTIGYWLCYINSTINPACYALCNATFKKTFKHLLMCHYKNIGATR

For `COc1ccc(C)c2sc(NC(=O)c3ccncc3)nc12`, the “% ACh max response” value was “inactive”. On the same count and under the same terms, to `Cc1nc2sc(C(=O)NCc3cccc(F)c3F)c(N)c2c(C)c1Cl` belongs “inactive”; to `Cc1nc2sc(C(=O)NCCc3ccncc3)c(N)c2c(C)c1Cl`, “inactive”. On to `Cc1nc2sc(C(=O)NCc3cccnc3)c(N)c2c(C)c1Cl`, for which the result was inactive.

Consider `Cc1nc2sc(C(=O)NCc3ccncc3)c(N)c2c(C)c1Cl`, for which the outcome was inactive.

As to `Cc1nc2sc(C(=O)NCc3ccc4c(c3)OCO4)c(N)c2c(C)c1Cl`, the outcome was inactive.

As a reminder, the EC50 is the concentration at which the effect is half-maximal. On to `Cc1nc2sc(C(=O)NC3CC3)c(N)c2c(C)c1Cl`, for which the concentration for a half-maximal effect (EC50) is 640 nM. For `Cc1nc2sc(C(=O)NCc3nccs3)c(N)c2c(C)c1Cl`, the “% ACh max response” value was “inactive”. `Cc1nc2sc(C(=O)NCc3ccccc3)c(N)c2c(C)c1Cl`: the result was inactive. On to `Cc1nc2sc(C(=O)NCc3ccncn3)c(N)c2c(C)c1Cl`, for which the “% ACh max response” value was “inactive”.
